Results from patent US20240368163A1, “COMPOUNDS AND METHODS FOR MODULATING SPLICING” (REMIX THERAPEUTICS INC., priority 2021, published 2024).
Where two headings read alike, the source gives them in different places.

Key:
Assay type in all cases: cell-based, human
[1] = system: HTT; assay: Splicing RT-qPCR assay, HTT mRNA canonical junction (CJ) and alternative junction (AJ); details: for AC50: increase in AJ mRNA
Outline: (§1)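 Splice switching is measured in A673 or K562 cells after 24 h compound exposure (maximum 10 uM, 3-fold steps). Canonical and alternative junction mRNA levels are quantified by RT-qPCR relative to housekeeper and DMSO.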

[2] = system: HTT; assay: HiBiT protein abundance assay, HTT; details: Table 13A, modified K562 cells
Outline: (§2)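 Target abundance was measured as HiBiT luminescence after 24 h compound treatment of tagged K562 cells. Responses were normalized between unmodified K562 and DMSO-treated tagged cells, and IC50 taken at the 50% level of a 4PL curve.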

[3] = system: SMN2; assay: Splicing RT-qPCR panel, SMN2 canonical junction (CJ) mRNA; details: RT-qPCR panel, canonical junction mRNA, compound concentration having 50% response in CJ decrease, read-out: SMN2 IC50 (decrease in CJ mRNA levels)
Outline: as §1

[4] = system: Target C; assay: Splicing RT-qPCR panel, Target C canonical junction (CJ) mRNA; details: RT-qPCR panel, canonical junction mRNA, compound concentration having 50% response in CJ decrease, read-out: Target C IC50 (decrease in CJ mRNA levels)
Outline: as §1

[5] = system: Target C; assay: HiBiT protein abundance assay, Target C; details: Table 13A, modified K562 cells
Outline: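 Cells carrying the HiBiT knock-in were plated at 10000 cells/well, dosed with compound (10-point, 3-fold, 10 μM top final) and incubated 24 hours at 37 °C. Lytic reagent was then added and luminescence read. Percent response fed a 4PL fit for IC50.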

[6] = system: MYB; assay: HiBiT protein abundance assay, MYB; details: Table 13A, modified K562 cells
Outline: as §2

[7] = system: MYB; assay: Splicing RT-qPCR assay, MYB mRNA canonical junction (CJ) and alternative junction (AJ); details: for AC50: increase in AJ mRNA
Outline: as §1

[8] = Homo sapiens, 24 h, decrease in CJ mRNA, A673 or K562 cells, 24 hours treatment, RT-qPCR, read-out: HTT CJ IC50
[9] = Homo sapiens, 24 h, A673 or K562 cells, 24 hours treatment, RT-qPCR
[10] = Homo sapiens, RT-qPCR panel, canonical junction mRNA, compound concentration having 50% response in CJ decrease, read-out: HTT IC50 (decrease in CJ mRNA levels)
[11] = Homo sapiens, 24 h, decrease in CJ mRNA, A673 or K562 cells, 24 hours treatment, RT-qPCR, read-out: MYB CJ IC50
[12] = Homo sapiens, RT-qPCR panel, canonical junction mRNA, compound concentration having 50% response in CJ decrease, read-out: MYB IC50 (decrease in CJ mRNA levels)

SMILES | IC50 [1, 8] | AC50 [1, 9] | IC50 [1, 10] | IC50 ([2]; Homo sapiens, K562, 24 h) | IC50 ([3]; Homo sapiens) | IC50 ([4]; Homo sapiens) | IC50 ([5]; Homo sapiens, K562, 24 h) | IC50 ([6]; Homo sapiens, K562, 24 h) | IC50 [7, 11] | AC50 [7, 9] | IC50 [7, 12] | IC50 ([1]; RT-qPCR panel, canonical junction mRNA, compound concentration having 50% response in CJ decrease, read-out: HTT IC50 (decrease in CJ mRNA levels)) | IC50 ([1]; decrease in CJ mRNA, A673 or K562 cells, 24 hours treatment, RT-qPCR, read-out: HTT CJ IC50) | IC50 ([2]; 24 hours) | IC50 [3] | IC50 [4] | IC50 ([5]; 24 hours) | IC50 ([6]; 24 hours) | IC50 ([7]; RT-qPCR panel, canonical junction mRNA, compound concentration having 50% response in CJ decrease, read-out: MYB IC50 (decrease in CJ mRNA levels)) | IC50 ([7]; decrease in CJ mRNA, A673 or K562 cells, 24 hours treatment, RT-qPCR, read-out: MYB CJ IC50)
CC1(C)CC(Oc2ccc(-c3ccc(-n4cccn4)c4ncsc34)nn2)CC(C)(C)N1 [Compound 335, 4-(pyrazol-1-yl)-7-{6-[(2,2,6,6-tetramethylpiperidin-4-yl)oxy]pyridazin-3-yl}-1,3-benzothiazole] | 1 to 10 µM | 1 to 10 µM | 1 to 10 µM | 0.1 to 1 µM | 0.1 to 1 µM | 1 to 10 µM | 1 to 10 µM | 1 to 10 µM | 1 to 10 µM | 1 to 10 µM | 1 to 10 µM | – | – | – | – | – | – | – | – | –
Cn1cc(-c2c(F)cc(-c3ccc(NC4CCNCC4)nn3)c3[nH]ncc23)cn1 [Compound 338] | 1 to 10 µM | 1 to 10 µM | 1 to 10 µM | 1 to 10 µM | 0.1 to 1 µM | > 10 µM | 1 to 10 µM | 1 to 10 µM | 1 to 10 µM | 1 to 10 µM | 1 to 10 µM | – | – | – | – | – | – | – | – | –
Cc1ncc(-c2ccc(-c3ccc(N(C)C4CC(C)(C)NC(C)(C)C4)nn3)c3scnc23)o1 [Compound 342] | 0.1 to 1 µM | 0.1 to 1 µM | 0.1 to 1 µM | 0.1 to 1 µM | < 0.1 µM | 1 to 10 µM | 0.1 to 1 µM | 0.1 to 1 µM | 1 to 10 µM | 1 to 10 µM | 1 to 10 µM | – | – | – | – | – | – | – | – | –
c1cnn(-c2ccc(-c3ccc(N[C@@H]4C[C@H]5CC[C@@H](C4)N5)nn3)c3scnc23)c1 [Compound 343] | – | 0.1 to 1 µM | < 0.1 µM | < 0.1 µM | < 0.1 µM | 0.1 to 1 µM | 0.1 to 1 µM | 0.1 to 1 µM | 0.1 to 1 µM | 0.1 to 1 µM | 0.1 to 1 µM | – | – | – | – | – | – | – | – | –
CN(c1ccc(-c2ccc(-n3cccn3)c3ncsc23)nn1)[C@@H]1C[C@H]2CC[C@@H](C1)N2 [Compound 344] | – | 0.1 to 1 µM | < 0.1 µM | < 0.1 µM | < 0.1 µM | 0.1 to 1 µM | 0.1 to 1 µM | 0.1 to 1 µM | 0.1 to 1 µM | 0.1 to 1 µM | 0.1 to 1 µM | – | – | – | – | – | – | – | – | –
CC(C)(C)NC1CCN(c2ccc(-c3ccc(-c4cn[nH]c4)c4ncsc34)nn2)C1 (stereo not shown) [Compound 345, N-tert-butyl-1-{6-[4-(1H-pyrazol-4-yl)-1,3-benzothiazol-7-yl]pyridazin-3-yl} pyrrolidin-3-amine] | – | – | – | – | – | – | – | – | – | – | – | 1 to 10 µM | 1 to 10 µM | 0.1 to 1 µM | 0.1 to 1 µM | 1 to 10 µM | 1 to 10 µM | 1 to 10 µM | 1 to 10 µM | 1 to 10 µM
c1cnn(-c2ccc(-c3ccc(N4CCC(NC5CC5)C4)nn3)c3scnc23)c1 (stereo not shown) [Compound 346, N-cyclopropyl-1-{6-[4-(pyrazol-1-yl)-1,3-benzothiazol-7-yl]pyridazin-3-yl}pyrrolidin-3-amine] | > 10 µM | > 10 µM | > 10 µM | 1 to 10 µM | > 10 µM | > 10 µM | > 10 µM | 1 to 10 µM | > 10 µM | > 10 µM | > 10 µM | – | – | – | – | – | – | – | – | –
c1cnn(-c2ccc(-c3ccc(N4CCC(NC5CC5)C4)nn3)c3[nH]ncc23)c1 (stereo not shown) [Compound 347, N-cyclopropyl-1-{6-[4-(pyrazol-1-yl)-1H-indazol-7-yl]pyridazin-3-yl}pyrrolidin-3-amine] | > 10 µM | > 10 µM | > 10 µM | 1 to 10 µM | 1 to 10 µM | > 10 µM | > 10 µM | 1 to 10 µM | > 10 µM | > 10 µM | > 10 µM | – | – | – | – | – | – | – | – | –
Cc1cc(-c2ccc(-c3ccc(O[C@@H]4C[C@H]5CC[C@@H](C4)N5)nn3)c3scnc23)ccn1 [Compound 349] | 1 to 10 µM | 1 to 10 µM | 1 to 10 µM | 0.1 to 1 µM | < 0.1 µM | 1 to 10 µM | 1 to 10 µM | 0.1 to 1 µM | 1 to 10 µM | > 10 µM | 1 to 10 µM | – | – | – | – | – | – | – | – | –
Cl.Fc1cc(-c2ccc(NC3CCNCC3)nn2)c2[nH]ncc2c1-c1cn[nH]c1 [Compound 350, 6-[5-fluoro-4-(1H-pyrazol-4-yl)-1H-indazol-7-yl]-N-(piperidin-4-yl)pyridazin-3-amine hydrochloride] | > 10 µM | > 10 µM | > 10 µM | > 10 µM | > 10 µM | > 10 µM | > 10 µM | 1 to 10 µM | > 10 µM | > 10 µM | > 10 µM | – | – | – | – | – | – | – | – | –
CN(c1ccc(-c2cc(F)c(-c3cn[nH]c3)c3cn[nH]c23)nn1)[C@@H]1C[C@H]2CC[C@@H](C1)N2 [Compound 351] | – | < 0.1 µM | < 0.1 µM | < 0.1 µM | < 0.1 µM | 0.1 to 1 µM | 0.1 to 1 µM | 0.1 to 1 µM | 0.1 to 1 µM | 0.1 to 1 µM | 0.1 to 1 µM | – | – | – | – | – | – | – | – | –
c1nc2c(-c3cn[nH]c3)ccc(-c3ccc(N[C@H]4C[C@H]5COC[C@@H](C4)N5)nn3)c2s1 [Compound 353] | > 10 µM | 1 to 10 µM | > 10 µM | 1 to 10 µM | 1 to 10 µM | 1 to 10 µM | > 10 µM | 1 to 10 µM | 1 to 10 µM | > 10 µM | 1 to 10 µM | – | – | – | – | – | – | – | – | –
